Source: patent US12213973B2, “Bacterial nitric oxide synthase inhibitors” (Northwestern University, priority 2021, dated 2025)
“Also recorded” adds a separate entry of the source.

How the values were obtained:
[1] = target: T1, human nNOS (hnNOS) (Homo sapiens, UniProt P29475); experiment: Hemoglobin NO capture assay, hnNOS; format: biochemical; conditions: from IC50 by Cheng-Prusoff, 10 μM L-Arg
T1 construct: made in house; host or cells: Escherichia coli
Experimental: (§1) The NOS inhibitory activity of the compounds was measured by the hemoglobin (Hb) NO capture assay following a protocol described previously.^1-2 The production of NO was monitored by a rapid oxidation of oxyhemoglobin (oxyHb) to methemoglobin (metHb) by NO.^1 Purified recombinant NOSs, human nNOS (hnNOS), and human eNOS (heNOS),^3 are used in all activity assays. They were expressed in Escherichia coli and purified as previously reported. In brief, the assay was performed in 100 mM HEPES (4-(2-hydroxyethyl)-1-piperazine-ethanesulfonic acid) buffer with 10% glycerol (pH 7.4-7.5) at 37° C. in the presence of 10 μM L-Arg, 10 μM H4B, 100 μM NADPH, 0.83 mM CaCl2), 320 units/mL calmodulin, and 3 μM human oxyhemoglobin. A concentration of L-Arg of 10 μM was used as it is sufficient not to cause NOS uncoupling and is close to the Km values of all three NOS isoforms where competitive inhibitors can be detected effectively. The assay was performed in 96-well plates using a Biotek Gen5 microplate reader. The NOS enzymes and hemoglobin were dispensed automatically by the plate reader. NO production was kinetically monitored at 401 nm for 6 min. The inhibition constants (Ki) for all NOSs were calculated from the IC50 values of the dose-response curves using the Cheng-Prusoff equation,^4
(§2) [formula] where Km is the Michaelis constant. […] The calculated standard deviations from dose-response curves of the assays were less than 10% with all NOSs.

[2] = target: T2, human eNOS (heNOS) (Homo sapiens, UniProt P29474); experiment: Hemoglobin NO capture assay, heNOS; format: biochemical; conditions: for Ki: from IC50 by Cheng-Prusoff, 10 μM L-Arg; for eNOS/nNOS selectivity: ratio of Ki heNOS to Ki hnNOS
T2 construct: made in house; host or cells: Escherichia coli
Experimental: as §1, §2

[3] = target: human endothelial NOS (heNOS) (Homo sapiens, UniProt P29474); experiment: IC50 determination, heNOS; format: biochemical; conditions: for isoform selectivity heNOS/bNOS (in parentheses): ratio of IC50 heNOS to IC50 bNOS WT
Experimental: (§3) Enzyme activity for bsNOS and bsNOS I218V was measured using the bBidomain constructs, as described previously,^4,14 with some minor alterations. Reactions with bsNOS and bsNOS I218V were run for 8 min, whereas those with hiNOS and heNOS were run for 4 min, as this allowed for adequate signal before complete substrate depletion. hiNOS and heNOS reactions also had calmodulin added at 10× the protein concentration. Inhibitors were tested from 5 μM to 800 μM. IC50 values were calculated as previously described.^9

[4] = target: human inducible NOS (hiNOS) (Homo sapiens, UniProt P35228); experiment: IC50 determination, hiNOS; format: biochemical; conditions: for isoform selectivity hiNOS/bNOS (in parentheses): ratio of IC50 hiNOS to IC50 bNOS WT
Experimental: as §3

[5] = system: MRSA in infected macrophage cells; experiment: Macrophage MRSA killing assay; format: cell-based; conditions: for MRSA killing activity in infected macrophage cells: FIG. 5; for MRSA killing activity compared with QJ13: FIG. 5B
Experimental: Bone marrow was isolated, red blood cells lysed with ACK buffer (Gibco), and plated on non-tissue culture treated dishes (Fisher) in DMEM media (Hyclone) supplemented with 2 mM L-glutamine (Corning), 100 U/mL pen-strep (Hyclone), 10% fetal bovine serum (OmegaScientific), and 10% cell conditioned media from CMG14-12 cells as a source of CSF. Macrophages were isolated after 6 days of differentiation and stored frozen in liquid nitrogen. One day prior to assay, macrophages were thawed and plated in flat-bottomed 96-well culture plates (VWR) at 50-70,000 cells per well in antibiotic-free DMEM media supplemented with 10% fetal bovine serum and L-glutamine.
Bacteria and inhibitors or vehicle control were added to each well. The plate was spun down for 5 min, 1500 rpm, 25° C. to bring bacteria in contact with the macrophages. The plate was incubated for 1 h at 37° C. with 5% CO2. The plate was spun down for 5 min, 1500 rpm, 25° C. The supernatant was pipetted off and discarded. Cells were lysed with 2% Triton-X 100 for 15 min. MTT in LB (100 μL of 1 mg/mL) was added to each well and plates were incubated for 2 h at 37° C. MTT was solubilized in DMSO, and plates were read at 540 nm. Killing was normalized to untreated bacteria. Empty wells with known bacteria quantities were used as a positive control.

[6] = target: T3, bNOS WT (bsNOS) (Bacillus subtilis, UniProt O34453); experiment: Imidazole displacement assay (spectral binding, Ks), bNOS WT; design: made in house; host or cells: E. coli BL21 (DE3)
Experimental: (§4) The KS value for each ligand was then calculated from KS,app as previously described,^4,14 using the KD of imidazole to bsNOS, bsNOS I218V, hiNOS, and heNOS and normalized to L-Arg.
Target sequence in this assay (O34453 whole entry): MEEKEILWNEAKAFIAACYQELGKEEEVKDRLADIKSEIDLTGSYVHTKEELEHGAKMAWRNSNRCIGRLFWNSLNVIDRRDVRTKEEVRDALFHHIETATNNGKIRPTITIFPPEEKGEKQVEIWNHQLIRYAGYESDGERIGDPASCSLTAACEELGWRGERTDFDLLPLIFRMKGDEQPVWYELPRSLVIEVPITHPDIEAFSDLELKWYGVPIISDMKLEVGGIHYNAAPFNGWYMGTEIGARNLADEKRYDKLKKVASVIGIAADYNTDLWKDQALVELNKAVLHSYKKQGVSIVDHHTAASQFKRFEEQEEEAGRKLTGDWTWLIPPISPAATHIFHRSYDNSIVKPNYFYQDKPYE

[7] = target: T4, bNOS (I218V) (Bacillus subtilis, UniProt O34453, I218V); experiment: Imidazole displacement assay (spectral binding, Ks), bNOS I218V mutant; design: made in house; host or cells: E. coli BL21 (DE3); conditions: for decrease in inhibitor specificity between wild type (WT) and the I218V mutant (increase in KS): KS I218V versus KS WT
Experimental: as §4
Target sequence in this assay (O34453 whole entry I218V): as the sequence (O34453 whole entry) above, with I218V counted along it

[8] = target: T3, bNOS WT (bsNOS); experiment: IC50 determination with bBidomain construct, bNOS WT; format: biochemical; design: YKuN (fusion partner); made in house; host or cells: E. coli BL21 (DE3)
Experimental: as §3
Target sequence in this assay (O34453 other isoform, or with tags, fused parts or gaps): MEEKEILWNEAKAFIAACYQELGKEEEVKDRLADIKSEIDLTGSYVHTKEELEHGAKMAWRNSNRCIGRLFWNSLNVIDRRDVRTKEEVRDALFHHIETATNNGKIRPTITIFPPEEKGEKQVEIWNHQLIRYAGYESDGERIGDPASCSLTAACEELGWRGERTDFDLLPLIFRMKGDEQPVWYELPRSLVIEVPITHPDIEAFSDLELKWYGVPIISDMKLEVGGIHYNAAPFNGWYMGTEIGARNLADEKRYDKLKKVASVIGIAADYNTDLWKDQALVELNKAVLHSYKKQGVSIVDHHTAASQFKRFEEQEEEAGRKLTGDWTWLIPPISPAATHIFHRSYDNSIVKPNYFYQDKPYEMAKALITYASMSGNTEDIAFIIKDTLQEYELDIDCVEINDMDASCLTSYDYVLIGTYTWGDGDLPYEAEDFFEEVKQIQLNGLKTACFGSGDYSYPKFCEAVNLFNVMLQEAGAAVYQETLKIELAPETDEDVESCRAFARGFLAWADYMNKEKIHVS

[9] = target: T4, bNOS (I218V); experiment: IC50 determination with bBidomain construct, bNOS I218V; format: biochemical; design: YKuN (fusion partner); made in house; host or cells: E. coli BL21 (DE3)
Experimental: as §3
Target sequence in this assay (O34453 other isoform, or with tags, fused parts or gaps I218V): as the sequence (O34453 other isoform, or with tags, fused parts or gaps) above, with I218V counted along it

[10] = target: hiNOS (Homo sapiens, UniProt P35228); experiment: Griess assay IC50, hiNOS; format: biochemical; conditions: IC50 value from Griess assay

Structure (SMILES)	Ki [1]	Ki [2]	eNOS/nNOS selectivity [2]	IC50 [3]	isoform selectivity heNOS/bNOS (in parentheses) [3]	IC50 [4]	isoform selectivity hiNOS/bNOS (in parentheses) [4]	MRSA killing activity in infected macrophage cells [5]	MRSA killing activity compared with QJ13 [5]	MRSA killing ([5]; at ~50 μM concentration)	Kd [6]	Kd [7]	decrease in inhibitor specificity between wild type (WT) and the I218V mutant (increase in KS) [7]	IC50 [8]	IC50 [9]	IC50 [10]
Nc1cccc(CNCCOc2cccc(OCc3cccc(N)n3)c2)n1 [PW-III-25]	3.3 µM	340 µM	102	–	–	–	–	–	–	–	–	–	–	–	–	–
Nc1cccc(CNCCOc2cccc(OCc3ccc4ccc(N)nc4c3)c2)n1 [Compound 9, 7-((3-(2-(((6-aminopyridin-2-yl)methyl)amino)ethoxy)phenoxy)methyl)quinolin-2-amine]	–	–	–	493 µM	19	350 µM	13	exhibited killing activity	superior MRSA killing activity	about 50%	2.25 µM	24.6 µM	11 fold	26.5 µM	228 µM	–
Nc1cccc(CCCCNCc2cccc(OCc3ccc4ccc(N)nc4c3)c2)n1 [PW-I-103]	0.038 µM	1.96 µM	51	–	–	–	–	–	–	–	–	–	–	–	–	24 µM
Nc1cccc(CNCc2cccc(OCc3ccc4ccc(N)nc4c3)c2)n1 [Compound 5, 7-((3-((((6-aminopyridin-2-yl)methyl)amino)methyl)phenoxy)methyl)quinolin-2-amine]	–	–	–	307 µM	11	318 µM	11	exhibited killing activity; also recorded: showed efficacy only at higher concentrations	superior killing activity	–	2.3 µM	40 µM	17 fold	28 µM	114 µM	–
Nc1cccc(CCc2cccc(OCc3ccc4ccc(N)nc4c3)c2)n1 [Compound 3, 7-((3-(2-(6-aminopyridin-2-yl)ethyl)phenoxy)methyl)quinolin-2-amine]	–	–	–	> 500 µM	–	435 µM	19	–	–	–	29.9 µM	23.5 µM	–	23.1 µM	31.2 µM	–
Nc1ccc2ccc(COc3cccc(CNCc4ccccn4)c3)cc2n1 [Compound 4, 7-((3-(((pyridin-2-ylmethyl)amino)methyl)phenoxy)methyl)quinolin-2-amine]	–	–	–	475 µM	12	143 µM	4	–	–	–	32 µM	58.9 µM	–	40 µM	86 µM	–
Nc1ccc2ccc(COc3cccc(CNCc4ccccn4)c3)cc2n1 [PW-I-101]	0.022 µM	19.8 µM	900	–	–	–	–	–	–	–	–	–	–	–	–	143 µM
Nc1ccc2ccc(COc3cccc(CNCCc4ccccn4)c3)cc2n1 [Compound 6, 7-((3-(((2-(pyridin-2-yl)ethyl)amino)methyl)phenoxy)methyl)quinolin-2-amine]	–	–	–	–	–	396 µM	18	–	–	–	22.6 µM	31.9 µM	–	21.6 µM	63.8 µM	–
COC(=O)[C@@H](N)CCCNC(=N)N[N+](=O)[O-] [L-NAME, reference compound]	–	–	–	–	–	–	–	no effect	–	–	–	–	–	–	–	–
Nc1cccc(CCCCNCc2cccc(OCc3ccc4ccc(N)nc4c3)c2)n1 [Compound 8, 7-((3-(((4-(6-aminopyridin-2-yl)butyl)amino)methyl)phenoxy)methyl)quinolin-2-amine]	–	–	–	126 µM	21	24 µM	4	–	–	–	6.3 µM	6.3 µM	–	6.1 µM	9.2 µM	–
